Data taken from PubChem BioAssay (NCI).
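The compound was tested at five concentrations on cells cultured in 96-well plates, with a 48-hour exposure period. Definition used: TGI = concentration required for complete inhibition of growth.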

Experiments:
Test in all cases: growth of human tumour cells (NCI), 48 h
MALME-3M melanoma = tested on: MALME-3M melanoma
RXF 393 renal = tested on: RXF 393 renal
SW-620 colon = tested on: SW-620 colon
T-47D breast = tested on: T-47D breast
PC-3 prostate = tested on: PC-3 prostate
SF-268 CNS = tested on: SF-268 CNS
HCT-116 colon = tested on: HCT-116 colon
NCI-H460 lung = tested on: NCI-H460 lung
CAKI-1 renal = tested on: CAKI-1 renal
ACHN renal = tested on: ACHN renal
SR leukemia = tested on: SR leukemia
SF-295 CNS = tested on: SF-295 CNS
UACC-62 melanoma = tested on: UACC-62 melanoma
MCF7 breast = tested on: MCF7 breast
HOP-92 NSCLC = tested on: HOP-92 NSCLC
SNB-19 CNS = tested on: SNB-19 CNS
MOLT-4 leukemia = tested on: MOLT-4 leukemia
A498 renal = tested on: A498 renal
EKVX NSCLC = tested on: EKVX NSCLC
SF-539 CNS = tested on: SF-539 CNS
K-562 leukemia = tested on: K-562 leukemia
COLO 205 colon = tested on: COLO 205 colon
OVCAR-3 ovarian = tested on: OVCAR-3 ovarian
HCC-2998 colon = tested on: HCC-2998 colon
NCI-H226 lung = tested on: NCI-H226 lung
786-0 renal = tested on: 786-0 renal
MDA-MB-435 = tested on: MDA-MB-435
HT29 colon = tested on: HT29 colon
OVCAR-4 ovarian = tested on: OVCAR-4 ovarian
HS 578T breast = tested on: HS 578T breast
SK-MEL-28 melanoma = tested on: SK-MEL-28 melanoma
MDA-MB-231 breast = tested on: MDA-MB-231 breast
UO-31 renal = tested on: UO-31 renal
NCI-H522 lung = tested on: NCI-H522 lung
M14 melanoma = tested on: M14 melanoma
SN12C renal = tested on: SN12C renal
LOX IMVI melanoma = tested on: LOX IMVI melanoma
NCI-H23 lung = tested on: NCI-H23 lung
IGROV1 ovarian = tested on: IGROV1 ovarian
SK-MEL-5 melanoma = tested on: SK-MEL-5 melanoma
CCRF-CEM leukemia = tested on: CCRF-CEM leukemia
HL-60(TB) leukemia = tested on: HL-60(TB) leukemia
HOP-62 NSCLC = tested on: HOP-62 NSCLC
DU-145 prostate = tested on: DU-145 prostate
MDA-N = tested on: MDA-N
BT-549 breast = tested on: BT-549 breast
A549 NSCLC = tested on: A549 NSCLC
UACC-257 melanoma = tested on: UACC-257 melanoma
U251 CNS = tested on: U251 CNS
TK-10 renal = tested on: TK-10 renal
SK-MEL-2 melanoma = tested on: SK-MEL-2 melanoma
HCT-15 colon = tested on: HCT-15 colon
OVCAR-5 ovarian = tested on: OVCAR-5 ovarian
RPMI-8226 leukemia = tested on: RPMI-8226 leukemia
SK-OV-3 ovarian = tested on: SK-OV-3 ovarian
KM12 colon = tested on: KM12 colon
SNB-75 CNS = tested on: SNB-75 CNS
OVCAR-8 ovarian = tested on: OVCAR-8 ovarian

Measured: TGI

CN1N(c2ccccc2)C(=O)C2=NC=C(C(=O)c3ccccc3)C(=N)C21C (stereo not drawn)
> 100 µM: MALME-3M melanoma | RXF 393 renal | SW-620 colon | T-47D breast | PC-3 prostate | SF-268 CNS | HCT-116 colon | NCI-H460 lung | CAKI-1 renal | ACHN renal | SR leukemia | SF-295 CNS | UACC-62 melanoma | MCF7 breast | HOP-92 NSCLC | SNB-19 CNS | MOLT-4 leukemia | A498 renal | EKVX NSCLC | SF-539 CNS | K-562 leukemia | COLO 205 colon | OVCAR-3 ovarian | HCC-2998 colon | NCI-H226 lung | 786-0 renal | MDA-MB-435 | HT29 colon | OVCAR-4 ovarian | HS 578T breast | SK-MEL-28 melanoma | MDA-MB-231 breast | UO-31 renal | NCI-H522 lung | M14 melanoma | SN12C renal | LOX IMVI melanoma | NCI-H23 lung | IGROV1 ovarian | SK-MEL-5 melanoma | CCRF-CEM leukemia | HL-60(TB) leukemia | HOP-62 NSCLC | DU-145 prostate | MDA-N | BT-549 breast | A549 NSCLC | UACC-257 melanoma | U251 CNS | TK-10 renal | SK-MEL-2 melanoma | HCT-15 colon | OVCAR-5 ovarian | RPMI-8226 leukemia | SK-OV-3 ovarian

Cc1cc(=O)[nH]c(-n2[nH]c3c(c2=O)CCCC3)n1
> 100 µM: MALME-3M melanoma | SW-620 colon | T-47D breast | PC-3 prostate | SF-268 CNS | HCT-116 colon | NCI-H460 lung | CAKI-1 renal | ACHN renal | SR leukemia | SF-295 CNS | UACC-62 melanoma | MCF7 breast | HOP-92 NSCLC | SNB-19 CNS | MOLT-4 leukemia | A498 renal | EKVX NSCLC | SF-539 CNS | K-562 leukemia | COLO 205 colon | NCI-H226 lung | 786-0 renal | MDA-MB-435 | HT29 colon | OVCAR-4 ovarian | KM12 colon | HS 578T breast | SK-MEL-28 melanoma | MDA-MB-231 breast | UO-31 renal | NCI-H522 lung | M14 melanoma | SN12C renal | NCI-H23 lung | IGROV1 ovarian | SK-MEL-5 melanoma | CCRF-CEM leukemia | HL-60(TB) leukemia | DU-145 prostate | MDA-N | BT-549 breast | A549 NSCLC | UACC-257 melanoma | U251 CNS | TK-10 renal | SK-MEL-2 melanoma | HCT-15 colon | OVCAR-5 ovarian | RPMI-8226 leukemia | SK-OV-3 ovarian
9.37 µM: SNB-75 CNS
48.7 µM: RXF 393 renal

Cc1cccc(NS(=O)(=O)c2ccc3c(c2)OCCOCCOCCOCCO3)c1
> 100 µM: MALME-3M melanoma | SW-620 colon | T-47D breast | PC-3 prostate | SF-268 CNS | HCT-116 colon | NCI-H460 lung | CAKI-1 renal | ACHN renal | SR leukemia | SF-295 CNS | UACC-62 melanoma | MCF7 breast | SNB-19 CNS | MOLT-4 leukemia | A498 renal | EKVX NSCLC | SF-539 CNS | K-562 leukemia | COLO 205 colon | HCC-2998 colon | NCI-H226 lung | 786-0 renal | MDA-MB-435 | HT29 colon | KM12 colon | HS 578T breast | SNB-75 CNS | SK-MEL-28 melanoma | MDA-MB-231 breast | UO-31 renal | M14 melanoma | SN12C renal | NCI-H23 lung | IGROV1 ovarian | SK-MEL-5 melanoma | OVCAR-8 ovarian | CCRF-CEM leukemia | HL-60(TB) leukemia | HOP-62 NSCLC | DU-145 prostate | MDA-N | BT-549 breast | A549 NSCLC | UACC-257 melanoma | TK-10 renal | HCT-15 colon | RPMI-8226 leukemia | SK-OV-3 ovarian
65.5 µM: NCI-H522 lung
